From patent US20120010179A1, “Methods of using a thiazole derivative” (priority 2006, published 2012)

Tested on: patients with COPD
Assay: Pulmonary function tests (spirometry FEV1, FVC), tetomilast with inhaled albuterol, crossover study (Example 1)
Type: in vivo, human
Conditions: for Estimated Treatment Effect, change from baseline in FEV1 (tetomilast versus placebo) / Estimated Treatment Effect, change from baseline in FVC (tetomilast versus placebo) / LS Mean change from baseline in FEV1 (repeated measures ANOVA) / LS Mean change from baseline in FVC (repeated measures ANOVA) / Mean (SD) change from baseline in FEV1 / Mean (SD) change from baseline in FVC: steady-state (predose) baseline, Day 8/23; for Estimated Treatment Effect, change from baseline in FEV1 (tetomilast versus placebo) / Estimated Treatment Effect, change from baseline in FVC (tetomilast versus placebo): both with inhaled albuterol; for LS Mean change from baseline in FEV1 (repeated measures ANOVA) / LS Mean change from baseline in FVC (repeated measures ANOVA) / Mean (SD) change from baseline in FEV1 / Mean (SD) change from baseline in FVC: tetomilast 50 mg QD + inhaled albuterol
Description: Pulmonary function tests were conducted throughout the study to monitor the subjects' respiratory status. Flow volume curves were collected via spirometry. Combivent® (Boehringer Ingleheim Pharmaceuticals, Inc., Ridgefield Conn.), which was used for short-acting rescues as needed throughout the studies described below, was withheld for 6 hours prior to any spirometric testing. Spirometry testing was performed at screening, baseline (Day 0), and at specific times during the treatment period. Each subject could have up to 5 spirometric readings at any study time point. Spirometric readings were performed using equipment from the central provider, Quantum Research, Inc. (Louisville, Colo.). All spirometry readings were recorded and sent to Quantum Research, Inc. for analysis
For the spirometric readings, the best effort was reported as follows. The highest acceptable forced expiratory volume in one second (FEV1) value was selected as the “best” of the given test session. If two or more FEV1 values were tied as highest, the sum of FEV1 and forced vital capacity (FVC) for those efforts was used. If both conditions were equal between the two efforts, the values reported were taken from the effort that occurred first, chronologically, based on date and time of the effort.
This study was a multicenter, randomized, double-blind, placebo-controlled, crossover, multiple dose, outpatient study in 27 patients with COPD. All subjects underwent a 28-day washout from inhaled corticosteroids and/or long-acting bronchodilators and/or continuous oxygen therapy (≧16 hours per day) and a 7-day washout from oral beta2-agonists and/or oral theophylline salts prior to baseline. Randomized subjects received an 8-day administration of oral placebo or tetomilast 50 mg oral dose (2×25 mg tablets) once daily (QD). On study Day 8, four consecutive doses of inhaled albuterol (90 μg albuterol base per puff) were given via a metered dose inhaler (MDI) and holding chamber (Ventolin®, GlaxoSmithKline, Research Triangle Park, N.C.), one dose every 30 minutes over the course of 90 minutes at doses of 90 μg+90 μg+180 μg+360 μg for a total dose of 720 μg (albuterol base) or 8 puffs.
Subjects entered a 7-day washout period (study days 9 through 15) and were then crossed over to the alternate treatment arm (placebo or tetomilast 50 mg oral dose). On study [0105] Day 23, the inhaled albuterol multiple dosing was repeated.
On Days 1-6 and 17-21, subjects were instructed to take their oral study medication (placebo or tetomilast 50 mg) QD with 8 ounces of water immediately before breakfast. Subjects assigned to the placebo arm received two placebo tablets QD. On Days 7, 8, 16, 22, and 23, subjects took their oral medication (placebo or tetomilast 50 mg) at the clinic in the presence of the study staff.
Combivent® inhalation aerosol use was allowed for short-acting rescue as needed throughout the study except on study days where PK samples were collected, on days when the multiple doses of inhaled albuterol were administered in the clinic, and/or on days when spirometry testing was performed. On all study days where PK samples were collected, Combivent® was withheld 6 hours prior to the PK draw. Additionally, on study Days 8 and 23 (when the multiple doses of inhaled albuterol were administered in the clinic), Combivent® was withheld 6 hours prior to PK assessment and throughout the duration of the clinic visit. Combivent® was withheld for six hours prior to spirometry testing. The recommended dose of Combivent® Inhalation Aerosol is two inhalations four times a day. In this study, subjects were permitted to take additional inhalations as required; however, the total number of inhalations was not to exceed 12 in 24 hours. Subjects were to “test-spray” three times before using for the first time and in cases where the aerosol had not been used for more than 24 hours. […]

CCOc1ccc(-c2nc(-c3cccc(C(=O)O)n3)cs2)cc1OCC [Tetomilast, 2-(3,4-diethoxyphenyl)-4-(2-carboxy-6-pyridyl)thiazole]
FVC steady-state (predose) baseline value, Mean (SD) (predose Day 8/23, on tetomilast 50 mg QD, prior to inhaled albuterol): 2.67 (0.88) L | FEV1 steady-state (predose) baseline value, Mean (predose Day 8/23, on tetomilast 50 mg QD, prior to inhaled albuterol, Table 3): 1.40 L | FVC steady-state (predose) baseline value, Mean (predose Day 8/23, on tetomilast 50 mg QD, prior to inhaled albuterol, Table 4): 2.67 L | Estimated Treatment Effect, change from baseline in FEV1 (tetomilast versus placebo) (5 min postdose): -0.01 L | Estimated Treatment Effect, change from baseline in FVC (tetomilast versus placebo) (5 min postdose): 0.01 L | LS Mean change from baseline in FEV1 (repeated measures ANOVA) (5 min postdose): 0.16 L | LS Mean change from baseline in FVC (repeated measures ANOVA) (5 min postdose): 0.30 L | Mean (SD) change from baseline in FEV1 (5 min postdose): 0.16 (0.09) L | Mean (SD) change from baseline in FVC (5 min postdose): 0.27 (0.25) L | Estimated Treatment Effect, change from baseline in FEV1 (tetomilast versus placebo) (25 min postdose): 0.03 L | Estimated Treatment Effect, change from baseline in FVC (tetomilast versus placebo) (25 min postdose): 0.03 L | LS Mean change from baseline in FEV1 (repeated measures ANOVA) (25 min postdose): 0.19 L | LS Mean change from baseline in FVC (repeated measures ANOVA) (25 min postdose): 0.29 L | Mean (SD) change from baseline in FEV1 (25 min postdose): 0.19 (0.16) L | Mean (SD) change from baseline in FVC (25 min postdose): 0.29 (0.37) L | Estimated Treatment Effect, change from baseline in FEV1 (tetomilast versus placebo) (35 min postdose): 0.03 L | Estimated Treatment Effect, change from baseline in FVC (tetomilast versus placebo) (35 min postdose): 0.01 L | LS Mean change from baseline in FEV1 (repeated measures ANOVA) (35 min postdose): 0.24 L | LS Mean change from baseline in FVC (repeated measures ANOVA) (35 min postdose): 0.39 L | Mean (SD) change from baseline in FEV1 (35 min postdose): 0.24 (0.18) L | Mean (SD) change from baseline in FVC (35 min postdose): 0.39 (0.36) L | Estimated Treatment Effect, change from baseline in FEV1 (tetomilast versus placebo) (55 min postdose): 0.05 L | Estimated Treatment Effect, change from baseline in FVC (tetomilast versus placebo) (55 min postdose): 0.07 L | LS Mean change from baseline in FEV1 (repeated measures ANOVA) (55 min postdose): 0.27 L | LS Mean change from baseline in FVC (repeated measures ANOVA) (55 min postdose): 0.37 L | Mean (SD) change from baseline in FEV1 (55 min postdose): 0.26 (0.20) L | Mean (SD) change from baseline in FVC (55 min postdose): 0.36 (0.37) L | Estimated Treatment Effect, change from baseline in FEV1 (tetomilast versus placebo) (65 min postdose): 0.06 L | Estimated Treatment Effect, change from baseline in FVC (tetomilast versus placebo) (65 min postdose): 0.13 L | LS Mean change from baseline in FEV1 (repeated measures ANOVA) (65 min postdose): 0.30 L | LS Mean change from baseline in FVC (repeated measures ANOVA) (65 min postdose): 0.50 L | Mean (SD) change from baseline in FEV1 (65 min postdose): 0.30 (0.20) L | Mean (SD) change from baseline in FVC (65 min postdose): 0.50 (0.40) L | Estimated Treatment Effect, change from baseline in FEV1 (tetomilast versus placebo) (85 min postdose): 0.05 L | Estimated Treatment Effect, change from baseline in FVC (tetomilast versus placebo) (85 min postdose): 0.05 L | LS Mean change from baseline in FEV1 (repeated measures ANOVA) (85 min postdose): 0.31 L | LS Mean change from baseline in FVC (repeated measures ANOVA) (85 min postdose): 0.45 L | Mean (SD) change from baseline in FEV1 (85 min postdose): 0.31 (0.20) L | Mean (SD) change from baseline in FVC (85 min postdose): 0.45 (0.39) L | Estimated Treatment Effect, change from baseline in FEV1 (tetomilast versus placebo) (95 min postdose): 0.05 L | Estimated Treatment Effect, change from baseline in FVC (tetomilast versus placebo) (95 min postdose): 0.12 L | LS Mean change from baseline in FEV1 (repeated measures ANOVA) (95 min postdose): 0.34 L | LS Mean change from baseline in FVC (repeated measures ANOVA) (95 min postdose): 0.53 L | Mean (SD) change from baseline in FEV1 (95 min postdose): 0.34 (0.21) L | Mean (SD) change from baseline in FVC (95 min postdose): 0.53 (0.42) L | Estimated Treatment Effect, change from baseline in FEV1 (tetomilast versus placebo) (115 min postdose): 0.05 L | Estimated Treatment Effect, change from baseline in FVC (tetomilast versus placebo) (115 min postdose): 0.11 L | LS Mean change from baseline in FEV1 (repeated measures ANOVA) (115 min postdose): 0.33 L | LS Mean change from baseline in FVC (repeated measures ANOVA) (115 min postdose): 0.51 L | Mean (SD) change from baseline in FEV1 (115 min postdose): 0.33 (0.20) L | Mean (SD) change from baseline in FVC (115 min postdose): 0.51 (0.48) L | Estimated Treatment Effect, change from baseline in FEV1 (tetomilast versus placebo) (175 min postdose): 0.06 L | Estimated Treatment Effect, change from baseline in FVC (tetomilast versus placebo) (175 min postdose): 0.07 L | LS Mean change from baseline in FEV1 (repeated measures ANOVA) (175 min postdose): 0.34 L | LS Mean change from baseline in FVC (repeated measures ANOVA) (175 min postdose): 0.50 L | Mean (SD) change from baseline in FEV1 (175 min postdose): 0.34 (0.21) L | Mean (SD) change from baseline in FVC (175 min postdose): 0.50 (0.38) L | Estimated Treatment Effect, change from baseline in FEV1 (tetomilast versus placebo) (235 min postdose): 0.04 L | Estimated Treatment Effect, change from baseline in FVC (tetomilast versus placebo) (235 min postdose): 0.01 L | LS Mean change from baseline in FEV1 (repeated measures ANOVA) (235 min postdose): 0.32 L | LS Mean change from baseline in FVC (repeated measures ANOVA) (235 min postdose): 0.39 L | Mean (SD) change from baseline in FEV1 (235 min postdose): 0.32 (0.25) L | Mean (SD) change from baseline in FVC (235 min postdose): 0.40 (0.50) L | Estimated Treatment Effect, change from baseline in FEV1 (tetomilast versus placebo) (295 min postdose): 0.03 L | Estimated Treatment Effect, change from baseline in FVC (tetomilast versus placebo) (295 min postdose): 0.11 L | LS Mean change from baseline in FEV1 (repeated measures ANOVA) (295 min postdose): 0.23 L | LS Mean change from baseline in FVC (repeated measures ANOVA) (295 min postdose): 0.35 L | Mean (SD) change from baseline in FEV1 (295 min postdose): 0.23 (0.26) L | Mean (SD) change from baseline in FVC (295 min postdose): 0.35 (0.50) L | Estimated Treatment Effect, change from baseline in FEV1 (tetomilast versus placebo) (355 min postdose): 0.11 L | Estimated Treatment Effect, change from baseline in FVC (tetomilast versus placebo) (355 min postdose): 0.17 L | LS Mean change from baseline in FEV1 (repeated measures ANOVA) (355 min postdose): 0.23 L | LS Mean change from baseline in FVC (repeated measures ANOVA) (355 min postdose): 0.32 L | Mean (SD) change from baseline in FEV1 (355 min postdose): 0.23 (0.22) L | Mean (SD) change from baseline in FVC (355 min postdose): 0.32 (0.43) L
